Key:
[1] = system: Mycobacterium tuberculosis Erdman (autoluminescent); assay: total FIC90 (Loewe) at 90% inhibition, three-drug combination (log2); higher = more antagonistic
Procedure: (§1)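 DiaMOND equipotent three-drug combination dose responses (10 doses, 1.5- or 2-fold spacing, centred on IC90) against autoluminescent M. tuberculosis Erdman in 8 in vitro models. Read-out is OD600, or luminescence for the intracellular and dormancy models, normalised to untreated wells. Hill-fit Einf, AUC25 and GRinf are potency metrics; FIC50 and FIC90 are total Loewe fractional inhibitory concentrations as log2 (negative = synergy).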

[2] = system: Mycobacterium tuberculosis Erdman (autoluminescent); assay: Einf, fitted maximum growth inhibition of three-drug combination (fraction); higher = stronger maximal inhibition
Procedure: as §1

[3] = system: Mycobacterium tuberculosis Erdman (autoluminescent); assay: AUC25, normalised area under dose response up to IC25 (three-drug combination) (fraction (0-1)); higher = more potent at low dose
Procedure: as §1

[4] = system: Mycobacterium tuberculosis Erdman (autoluminescent); assay: total FIC50 (Loewe) at 50% inhibition, three-drug combination (log2); higher = more antagonistic
Procedure: as §1

[5] = system: Mycobacterium tuberculosis Erdman (autoluminescent); assay: GRinf, maximum normalised growth rate inhibition (three-drug combination) (unitless (-1 to 1)); higher = less effect (negative = killing)
Procedure: as §1

CC[C@@H](CO)NCCN[C@@H](CC)CO [ethambutol] + COc1c(N2C[C@@H]3CCCN[C@@H]3C2)c(F)cc2c(=O)c(C(=O)O)cn(C3CC3)c12 [moxifloxacin] + NC(=O)c1cnccn1 [pyrazinamide]
Details | AUC25, [3] | Einf, [2] | GRinf, [5] | total FIC50, [4] | total FIC90, [1]
in vitro model: acidic pH 5.7, time point: constant (~7 days, model-specific) | 0.106 | 0.781 | -0.213 | 0.429 | –
in vitro model: acidic pH 5.7, time point: terminal (~4-5 doublings, model-specific) | 0.0713 | 0.959 | -0.294 | 0.98 | 0.0827
in vitro model: intracellular J774, time point: constant = terminal | – | 0.98 | -0.497 | – | -0.596

Details | AUC25, [3] | Einf, [2] | GRinf, [5] | total FIC50, [4] | total FIC90, [1]
in vitro model: butyrate, time point: constant (~7 days, model-specific) | 0.108 | 0.926 | 0.001 | 0.345 | –
in vitro model: butyrate, time point: terminal (~4-5 doublings, model-specific) | 0.0814 | 0.967 | -0.00667 | 0.477 | 0.431
in vitro model: cholesterol 0.05 mM, time point: constant (~7 days, model-specific) | 0.12 | 0.683 | -0.365 | – | –
in vitro model: cholesterol 0.05 mM, time point: terminal (~4-5 doublings, model-specific) | 0.135 | 0.8 | -0.21 | 0.703 | –
in vitro model: cholesterol-high 0.2 mM, time point: constant (~7 days, model-specific) | 0.0703 | 0.962 | -0.373 | 1.02 | –
in vitro model: cholesterol-high 0.2 mM, time point: terminal (~4-5 doublings, model-specific) | 0.0603 | 1 | -0.587 | 1.29 | 1.24
in vitro model: dormancy (butyrate + nitrate, low O2), time point: constant (~7 days, model-specific) | 0.0861 | 0.816 | 0.46 | -0.23 | –
in vitro model: dormancy (butyrate + nitrate, low O2), time point: terminal (~4-5 doublings, model-specific) | 0.0923 | 0.979 | -0.107 | 0.189 | -0.144
in vitro model: standard 7H9 glycerol, time point: constant = terminal | 0.0574 | 0.966 | -0.145 | – | –
in vitro model: valerate, time point: constant (~7 days, model-specific) | 0.0872 | 0.884 | -0.169 | 0.599 | –
in vitro model: valerate, time point: terminal (~4-5 doublings, model-specific) | 0.0506 | 0.945 | -0.037 | 0.696 | -0.119

CC[C@@H](CO)NCCN[C@@H](CC)CO [ethambutol] + COc1c(N2C[C@@H]3CCCN[C@@H]3C2)c(F)cc2c(=O)c(C(=O)O)cn(C3CC3)c12 [moxifloxacin] + O=[N+]([O-])c1cn2c(n1)OC[C@@H](OCc1ccc(OC(F)(F)F)cc1)C2 [pretomanid]
Details | AUC25, [3] | Einf, [2] | GRinf, [5] | total FIC50, [4] | total FIC90, [1]
in vitro model: acidic pH 5.7, time point: constant (~7 days, model-specific) | 0.124 | 0.718 | -0.388 | 0.434 | –
in vitro model: acidic pH 5.7, time point: terminal (~4-5 doublings, model-specific) | 0.0788 | 0.939 | -0.335 | 1.03 | 0.811
in vitro model: intracellular J774, time point: constant = terminal | – | 0.999 | -0.573 | – | -1.12

Details | AUC25, [3] | Einf, [2] | GRinf, [5] | total FIC50, [4] | total FIC90, [1]
in vitro model: butyrate, time point: constant (~7 days, model-specific) | 0.0791 | 0.94 | -0.0315 | 0.478 | –
in vitro model: butyrate, time point: terminal (~4-5 doublings, model-specific) | 0.0604 | 0.968 | -0.039 | 0.42 | 0.0737
in vitro model: cholesterol 0.05 mM, time point: constant (~7 days, model-specific) | 0.106 | 0.669 | -0.247 | 0.987 | –
in vitro model: cholesterol 0.05 mM, time point: terminal (~4-5 doublings, model-specific) | 0.116 | 0.927 | -0.457 | 0.0988 | 1.38
in vitro model: cholesterol-high 0.2 mM, time point: constant (~7 days, model-specific) | 0.0657 | 0.89 | -0.187 | 0.925 | –
in vitro model: cholesterol-high 0.2 mM, time point: terminal (~4-5 doublings, model-specific) | 0.0467 | 1 | -0.609 | 1.12 | 1.04
in vitro model: dormancy (butyrate + nitrate, low O2), time point: constant (~7 days, model-specific) | 0.116 | 0.835 | 0.349 | 0.37 | –
in vitro model: dormancy (butyrate + nitrate, low O2), time point: terminal (~4-5 doublings, model-specific) | 0.126 | 0.986 | -0.335 | -0.414 | 0.703
in vitro model: standard 7H9 glycerol, time point: constant = terminal | 0.0753 | 0.974 | -0.251 | 0.294 | 0.564
in vitro model: valerate, time point: constant (~7 days, model-specific) | 0.0943 | 0.862 | -0.00882 | -0.131 | –
in vitro model: valerate, time point: terminal (~4-5 doublings, model-specific) | 0.0516 | 0.929 | 0.0316 | 0.26 | -0.798

CC[C@@H](CO)NCCN[C@@H](CC)CO [ethambutol] + NC(=O)c1cnccn1 [pyrazinamide] + CO[C@H]1/C=C/O[C@@]2(C)Oc3c(C)c(O)c4c(O)c(c(/C=N/N5CCN(C6CCCC6)CC5)c(O)c4c3C2=O)NC(=O)/C(C)=C\C=C\[C@H](C)[C@H](O)[C@@H](C)[C@@H](O)[C@@H](C)[C@H](OC(C)=O)[C@@H]1C [rifapentine]
Details | AUC25, [3] | Einf, [2] | GRinf, [5] | total FIC50, [4] | total FIC90, [1]
in vitro model: butyrate, time point: constant (~7 days, model-specific) | 0.0808 | 0.911 | 0.0172 | 0.221 | –
in vitro model: butyrate, time point: terminal (~4-5 doublings, model-specific) | 0.0667 | 0.958 | 0.025 | 0.309 | -0.154
in vitro model: cholesterol 0.05 mM, time point: constant (~7 days, model-specific) | 0.116 | 0.659 | -0.834 | – | –
in vitro model: cholesterol 0.05 mM, time point: terminal (~4-5 doublings, model-specific) | 0.11 | 0.886 | -0.315 | 1.58 | –
in vitro model: cholesterol-high 0.2 mM, time point: constant (~7 days, model-specific) | 0.0322 | 0.941 | -0.414 | 1.2 | –
in vitro model: cholesterol-high 0.2 mM, time point: terminal (~4-5 doublings, model-specific) | 0.0395 | 0.999 | -0.679 | 1.46 | 1.21
in vitro model: dormancy (butyrate + nitrate, low O2), time point: constant (~7 days, model-specific) | 0.0922 | 0.87 | 0.301 | -0.0129 | –
in vitro model: dormancy (butyrate + nitrate, low O2), time point: terminal (~4-5 doublings, model-specific) | 0.116 | 0.984 | -0.233 | 0.284 | 1.88
in vitro model: standard 7H9 glycerol, time point: constant = terminal | 0.0407 | 0.883 | 0.165 | 0.158 | –
in vitro model: valerate, time point: constant (~7 days, model-specific) | 0.0408 | 0.821 | 0.114 | 0.105 | –
in vitro model: valerate, time point: terminal (~4-5 doublings, model-specific) | 0.0268 | 0.909 | 0.11 | 0.338 | -0.692

Details | AUC25, [3] | Einf, [2] | GRinf, [5] | total FIC50, [4] | total FIC90, [1]
in vitro model: acidic pH 5.7, time point: constant (~7 days, model-specific) | 0.0954 | 0.885 | -0.165 | -0.399 | –
in vitro model: acidic pH 5.7, time point: terminal (~4-5 doublings, model-specific) | 0.0652 | 0.98 | -0.191 | -0.0475 | –
in vitro model: intracellular J774, time point: constant = terminal | – | 0.977 | -0.419 | – | -1.88

From the supplement of paper PMC8617591
